Measurements from patent EP0192317A1, “Homocarnosine or acylhomocarnosine salts” (HAMARI YAKUHIN KOGYO KABUSHIKI KAISHA also known as HAMARI …, priority 1985, dated 1986).

What was measured:
[1] = test system: Water-immersion stress ulcer; assay: Water-immersion stress ulcer; type: in vivo, Male JCI-SD strain rats; conditions: for Ulcer Index (mm): 400 mg/kg orally 30 minutes before 7 hours immersion in 23°C water, sum of the lengths of the lesions in the body of the stomach; for Inhibition (%): 400 mg/kg orally, inhibition of water-immersion stress ulcer versus No drug
Procedure: After a fasting period of 24 hours, 400 mg/kg of each test compound was orally administered to each animal, and after 30 minutes, the animal was immobilized in a stress cage and was immersed in 23°C water down to the level of the thorax for 7 hours. After this stress loading, the rats was exsanguinated by decapitation and the stomach was excised and fixed in 1% formalin for 15 minutes. Then, an incision was made from the pyrolus along the greater curvature and the lengths of the lesions formed in the body of the stomach were measured using a dissecting microscope (with a scale graduated in 1/100 cm). The sum of the lengths was used as the ulcer index.

Wistar strain rats = assay: Acute toxicity study; type: in vivo; conditions: orally 5 g/kg, observed for 7 days, rats of either sex
Description: Wistar strain rats of either sex weighing 150 to 200 g were used in groups of 7 animals.

wound = assay: Wound healing-promoting activity (tension required for separating the back skin wound); type: in vivo, Male rats; conditions: for Tension: 10 g in 20 ml of peanut oil, 0.05 ml per dose once daily for 10 consecutive days, tension required for separating the wound
Procedure: 2. Wound healing-promoting activity (Method)
Male rats weighing about 180 g-were used in groups of 9 animals. The hair on the back of each rat was clipped with an electric clipper and under ether anesthesia, a wound (20 mm long) was made with a chisel having a 20 mm edge in two positions of the cropped back. A suspension of each test compound (10 g) in 20 ml of peanut oil was applied to the wound in a volume of 0.05 ml per dose once daily for 10 consecutive days. After 10 days, the animal was bled to death by decapitation and the skin of the back was peeled until the wound was separated. The tension (grams) required for separating the wound was measured as an indicator of drug efficacy.

[2] = test system: Pyrolic ligation-induced ulcer; assay: Pyrolic ligation-induced ulcer (Shay method); type: in vivo, Male Wistar strains rats; conditions: for Inhibition (%): 300 mg/kg intraduodenally immediately after ligation, ulcer in the fore-stomach 13 hours after administration
Procedure: (b) Pyrolic ligation-induced ulcer
Male Wistar strains rats weighing about 300 g were deprived of food for 20 hours, with provision against fecal feeding, and used in groups of 8 animals. The pyrolus of each animal was ligated under ether anesthesia according to the method described by Shay et al. [H.G. Shay, S.A. Komarow, S.S. Felds, D. Meranze, M. Gruenstein, and H. Siplet, Gastroenterology, 5, 43 (1945)], and 300 mg/kg of each test compound was immediately administered intraduodenally. The incision was sutured and 13 hours after drug administration the rat was sacrified by cervical dislocation. The stomach was excised, slightly inflated by an injection of 1% formalin solution, immersed in the same solution for 15 minutes to fix the gastric wall, and then opened along the greater curvature. The ulcer in the fore-stomach was measured under a dissecting microscope .to calculate the ulcer index and the efficacy of the drug was expressed in terms of percent ulcer index.

Compound | Ulcer Index (mm) [1] [mm] | Inhibition (%) [1] [%] | death (Wistar strain rats) | Tension (wound) [g] | Inhibition (%) [2] [%] | wound healing-promoting effect (in words) (wound; summary of Table III) | antiulcer potency among the compounds tested (in words) ([2]; summary of Tables I and II)
CN/C(=N/CCSCc1nc[nH]c1C)NC#N [Cimetidine, reference compound] | 4.02 | 60.7 | – | – | – | – | –
NCCCC(=O)N[C@@H](Cc1cnc[nH]1)C(=O)O [Homocarnosine, L-homocarnosine] | 8.81 | 13.9 | No death | 218.78 | 6.2 | – | –
CC(=O)NCCCC(=O)N[C@@H](Cc1cnc[nH]1)C(=O)O [N-Acetyl-L-Homocarnosine, N-acetyl-L-homocarnosine, reference compound] | 9.95 | 6.7 | No death | 207.45 | 2.4 | – | –
(L-homocarnosine)2 zinc salt [(Homocarnosine)2 Zn] | 6.34 | 38.0 | – | – | – | – | –
(N-acetyl-L-homocarnosine)2 zinc salt [(N-Acetyl-L-Homocarnosine)2 Zn] | 8.32 | 18.7 | – | – | – | – | –
Basic aluminum sucrose sulfate [reference compound] | 8.54 | 16.6 | – | – | 4.7 | – | –
Carnosine Zn [reference compound] | 4.61 | 54.9 | – | – | 39.2 | – | –
L-homocarnosine aluminum salt [(Homocarnosine)2 AlOH] | 7.76 | 24.2 | – | – | – | – | –
L-homocarnosine aluminum salt [(Homocarnosine)3 Al] | 8.24 | 19.5 | – | – | – | – | –
L-homocarnosine aluminum salt [Homocarnosine Al(OH)2] | 7.10 | 30.6 | – | 220.28 | 11.2 | – | –
L-homocarnosine zinc salt [Homocarnosine Zn] | 3.85 | 62.4 | – | 249.36 | 46.2 | particularly excellent | the most potent
N-acetyl-L-homocarnosine aluminum salt [(N-Acetyl-L-Homocarnosine)2 Al] | 8.46 | 17.3 | – | – | – | – | –
N-acetyl-L-homocarnosine aluminum salt [N-Acetyl-L-Homocarnosine Al(OH)2] | 5.40 | 47.2 | – | 203.57 | 38.7 | – | –
N-acetyl-L-homocarnosine zinc salt [N-Acetyl-L-Homocarnosine Zn] | 7.06 | 31.0 | – | 233.64 | 22.1 | – | –
